Assay results reported in patent US20250114380A1, “SMALL MOLECULE CD38 INHIBITORS AND METHODS OF USING SAME” (President and Fellows of Harvard College, priority 2011, published 2025).

Tests used:
cellular NADase activity = assay: Cellular NADase activity; type: cell-based
Excerpt: FIG. 2A depicts inhibition in cellular NADase activity by CD38 inhibitors Apigenin and Quercetin. In certain embodiments, the invention relates to small molecules capable of inhibiting CD38 activity at nanomolar or micromolar concentrations (FIG. 1 and FIG. 3). Preliminary cellular assays on some of these compounds have shown that they are able to inhibit cellular NADase activity resulting in increased cellular NAD levels (FIG. 2a and FIG. 2b).

[1] = test system: murine oogonial stem cells (OSCs); assay: NAD+/NADH levels in oogonial stem cells; type: cell-based
Protocol: (§1) Oogonial stem cells were isolated from dissociated ovaries using a FACS based sorting protocol to purify OSCs free of contaminating oocytes (White et al., in press). Cells were maintained in culture medium consisted of minimum essential medium α (MEMα), 10% FBS, 1 mM sodium pyruvate, 1 mM non-essential amino acids, 2 mM 1-glutamine, 0.1 mM β-mercaptoethanol (Sigma), 10 ng/ml-1 LIF (Millipore), 1× N-2 MAX Media Supplement (R&D) 10 ng/ml EGF (Epidermal growth factor, Recombinant human; Gibco), 40 ng/ml human GDNF (glial cell line-derived neurotrophic factor; R&D systems), 1 ng/ml human bFGF (basic fibroblast growth factor; Gibco)
(§2) For all experiments 25,000 cells were plated in each well of a 24 well plate. Cells were allowed to attach for 24 h and then were treated with NMN (β-Nicotinamide mononucleotide; Sigma). Unless otherwise stated, NMN was added at for 12 and again for 6 hours before analysis (12+6 h).
NAD+/NADH levels were measured according to the manufacturer's instructions using the NAD/NADH Quantitation Kit (Biovision)

murine OSCs = assay: Mitochondrial DNA copy number in OSCs; type: cell-based
Protocol: as §1, §2
Total cellular DNA was isolated from cells at the indicated time points using DNeasy Blood & Tissue Kit (Qiagen) according to the manufacturer's instructions. Mt DNA copy number was quantified using LightCycler 480 SYBR Green I Master (Roche Applied Science) using the following primers on a Roche 480 PCR machine.

[2] = test system: cultured murine oogonial stem cells; assay: Spontaneous oocyte formation assay; type: cell-based; conditions: 200 μM and 400 μM NMN
Protocol: FIG. 9 depicts the increase in spontaneuous oocyte formation in cultured murine oogonial stem cells by nicotinamide mononucleotide. For assessment of spontaneous oocyte formation, each well of a 24-well plate was seeded with 25.000 OSCs, and the number of oocytes formed and released into the medium per well was assessed the second day after seeding as well as the designated time points after NMN treatment. Left bar=vehicle; middle bar=200 μM nicotinamide mononucleotide (NMN); right bar=400 μM NMN.
For assessment of spontaneous oocyte formation, each well of a 24-well plate was seeded with 25.000 OSCs, and the number of oocytes formed and released into the medium per well was assessed the second day after seeding as well as the designated time points after NMN treatment.

[3] = NAD+ levels in vivo in mice
Protocol: Cardiac [NAD^+] declines with age and is reversed by NMN treatment (n=3; 200 mg/kg/d intraperitoneally for 1 week).
(§3) FIG. 11A depicts the restorative effects of an NAD^+ precursor (NMN) on mitochondrial function in vivo.

[4] = Mitochondrial function in skeletal muscle in vivo; conditions: 24-month old mice, 1 week of treatment, I.P.
Excerpt: as §3

C2C 2 cells = assay: Mitochondrial function in C2C 2 cells; type: cell-based; conditions: SIRT1-dependent (sh Ctl vs sh SIRT1)

cellular NADase activity (cellular NADase activity) | SMILES | cellular NAD+ [1] | cellular NAD+/NADH [1] | cellular NADH [1] | mitochondrial DNA content (murine OSCs) | spontaneous oocyte formation [2] | age-related decline of cardiac [NAD+] ([3]; 200 mg/kg/d intraperitoneally for 1 week) | rise of NAD+ levels in brain, heart and skeletal muscle ([3]; intraperitoneal injection) | NAD+ levels in vivo ([3]; young and old mice) | decline in mitochondrial function in skeletal muscle [4] | mitochondrial function (C2C 2 cells)
inhibition | O=c1cc(-c2ccc(O)cc2)oc2cc(O)cc(O)c12 [Apigenin, 5,7,4′-Trihydroxyflavone] |  |  |  |  |  |  |  |  |  | 
 | NC(=O)c1ccc[n+]([C@@H]2O[C@H](COP(=O)([O-])O)[C@@H](O)[C@H]2O)c1 [NMN, β-Nicotinamide mononucleotide] | increase | increase | increase | increase | increase | reversed | 30-100% | raises NAD^+ levels | completely reversed | increases mitochondrial function
inhibition | O=c1c(O)c(-c2ccc(O)c(O)c2)oc2cc(O)cc(O)c12 [Quercetin, 3,5,7,3′,4′-Pentahydroxyflavone] |  |  |  |  |  |  |  |  |  | 
